According to patent publication US11370822B2, “Self-assembling peptide for activating human mast cells” (The Governors of the University of Alberta, priority 2017, dated 2022):
Read-outs that look alike come from different tables or passages of the source.

Assays:
LAD2 cells [1] = experiment: Laser-scanning confocal microscopy of LAD2 cells on hydrogel matrices (adhesion, F-actin); format: cell-based, human; settings: 0.5% w/v matrix (pure (RADA)4 or 20% w/w (RADA)4-GG-(PAMP-12))
Experimental: For each sample, 0.25×10^5 LAD2 cells in 50 μl culture medium were allowed to incubate with 50 μl hydrogel matrix for 30 min at 37° C. After incubation, the medium was disposed, and hydrogel matrix was carefully washed by warm PBS for 3 times to remove non-adherent cells. Hydrogel matrices were then fixed in 3.7% paraformaldehyde in PBS for 20 min at room temperature and 3 times washed in PBS. Cells were permeabilized with 0.1% Triton X-100 in PBS for 5 min, washed in PBS for 3 times, then followed by 3% BSA blocking for 30 min and 3 times washing in PBS. To stain F-actin, samples were incubated with 0.5 μM Phalloidin-FITC (Sigma-Aldrich, USA) for 30 minutes and followed by 3 times washing in PBS. Cell nuclei were stained with 1 ug/mL DAPI (Sigma-Aldrich, USA) in PBS for 30 min. After 3 times washing in PBS, Z-slice images of the matrix with adhered LAD2 cells were collected using Laser Scanning Confocal Microscopy (LSM710, Carl Zeizz AG, Oberkochen, Germany) with an inverted 10× objective.

LAD2 cells [2] = experiment: β-hexosaminidase (β-hex) release assay, peptide solutions; format: cell-based, human; settings: 30 min; for LAD2 degranulation (β-hex release): peptide solutions, various concentrations, compared with PBS; for β-hex release (plateau): solution free peptide, 10 μM
Experimental: LAD2 (Laboratory of Allergic Diseases 2) human mast cells were incubated in StemPro-34 SFM medium (Life Technologies, Rockville, Md.) supplemented with 2 mM L-glutamine, 100 I/ml penicillin, 50 μg/ml streptomycin, 100 ng/ml recombinant human SCF (Peprotech, Rocky Hill, N.J.). Cells were maintained at 0.1×10^6 cells/ml at 37° C. and 5% CO2. Cell suspensions were isolated via centrifugation (200 g, 5 min, at room temperature) and media was replaced every 3-7 days. For each well, 0.25×10^5 LAD2 cells were washed and resuspended in 90 μl HEPES buffer (10 mM, with 0.4% BSA, pH 7.4), and activated by adding 10 μl peptide solutions (PAMP-12 […], (RADA)4 (SEQ ID NO: 1) and (RADA)4-GG-(PAMP-12) (SEQ ID NO: 2)) in PBS (1×, pH 7.4) for 30 min at 37° C., the final concentrations of peptide are 0, 0.01, 0.1, 1, 10, 20, 50, 100 μM respectively. β-hex release was quantified through analysis of the hydrolysis of p-nitrophenyl N-acetyl-b-D-glucosamide (Sigma Aldrich, Oakville, ON, Canada) in 0.1 M sodium citrate buffer (pH 4.5) for both the supernatant and in total cell lysates solubilized with 0.01% Triton X-100 for 90 min at 37° C. The reaction was stopped by adding glycine buffer (pH 10.7). Read absorbance at 405 nm with reference filter at 620 nm. The percent-age of β-hex released into the supernatant was calculated by the β-hex contents of supernatant and cell lysate.

LAD2 cells [3] = experiment: β-hex release assay, LAD2 cells on top of hydrogel matrices; format: cell-based, human; settings: for degranulation activity (β-hex release): 30 min
Experimental: (§1) (RADA)4 (SEQ ID NO: 1) and (RADA)4-GG-(PAMP-12) (SEQ ID NO:2) stock solutions (1.0% w/v) were prepared by dissolving peptide powder in syringe filtered (0.2 μm) Milli-Q water. Peptide stock solutions were sonicated for 30 min to avoid bulk aggregates and reduce viscosity. (RADA)4 peptide solutions with different proportion of (RADA)4-GG-(PAMP-12) (SEQ ID NO: 2) (0, 2.5, 5, 10, 20, 40, 80, 100% w/w) were mixed with 1x PBS (pH 7.4) at a ratio of 1:1 (v/v) to get hydrogel matrices with peptide concentration of 0.5% w/v. Fifty μl of the mixture was placed at the bottom of a 96-well plate or well insert, overnight at 4° C. and washed with HEPES buffer (10 mM, with 0.4% BSA, pH 7.4) or PBS for 3 times.
LAD2 (Laboratory of Allergic Diseases 2) human mast cells were incubated in StemPro-34 SFM medium (Life Technologies, Rockville, Md.) supplemented with 2 mM L-glutamine, 100 I/ml penicillin, 50 μg/ml streptomycin, 100 ng/ml recombinant human SCF (Peprotech, Rocky Hill, N.J.). Cells were maintained at 0.1×10^6 cells/ml at 37° C. and 5% CO2. Cell suspensions were isolated via centrifugation (200 g, 5 min, at room temperature) and media was replaced every 3-7 days.
To evaluate the effect of the matrices on degranulation, 0.25×10^5 LAD2 cells in 50 μl HEPES buffer (10 mM, with 0.4% BSA, pH 7.4) were carefully placed on the top of 50 μl hydrogel matrices, and the β-hex release was measured as described. After 30 min incubation, cell free supernatant and total cells with the matrices were collected by centrifugation (300 g, 5 min) for analysis.

LAD2 cells [4] = experiment: β-hex release assay, co-culture with well insert (0.2 μm pore size filter); format: cell-based, human; settings: 30 min
Experimental: To evaluate the immobilization effect of (RADA)4-GG-(PAMP-12) (SEQ ID NO: 2) in the matrices. As shown in FIG. 6 (A), 0.25×10^5 LAD2 cells in 100 μl HEPES buffer (10 mM, with 0.4% BSA, pH 7.4) were co-incubated with well inserts that contain 50 μl of self-assembling matrix (20% and 100% w/w of (RADA)4-GG-(PAMP-12) (SEQ ID NO: 2)) or PAMP-12 (SEQ ID NO: 3) solution in HEPES buffer (10 mM, with 0.4% BSA, pH 7.4) with the corresponding concentration (0.29 and 1.46 mM respectively). After 30 min incubation, inserts were removed, and the β-hex release was measured as described.

LAD2 cells [5] = experiment: Cell viability analysis using XTT assay; settings: for cytotoxicity to LAD2 cells (XTT): PAMP-12 10 μM, 0.5% w/v hydrogel matrices (pure (RADA)4 or 20% w/w (RADA)4-GG-(PAMP-12)), 4 h or 24 h; for effect on LAD2 proliferation (XTT): same treatments, after 24 h incubation
Experimental: (§2) LAD2 cells were suspended in culture medium (50 μl, 1.0×10^6 cells/ml) and placed on top of 50 μl of hydrogel matrix or culture medium solution. After an 4 h or 24 h incubation, cell viability was measured using a 2,3-bis-(2-methoxy-4-nitro-5-sulfophenyl)-2H-tetrazolium-5-carboxanilide (XTT) proliferation kit (Roche Molecular Biochemicals, Indianapolis, Ind., USA), according to the manufacturer's supplied instructions. To facilitate a uniform distribution of color throughout the hydrogel matrix, 50 μl of DMSO was added into each well prior to analysis.

TPSAB1 (tryptase) mRNA = experiment: In vitro activation of mast cells in human skin, ddPCR for TPSAB1 expression; settings: human skin without epidermis (NSE), 4 h; 10 μM PAMP-12, pure (RADA)4 matrix or matrix with 20% w/w (RADA)4-GG-(PAMP-12); NS average taken as 100
Source text: Human skin was harvested from abdominoplasty surgical discard specimens obtained following written informed consent as approved by the University of Alberta research ethics board. All tissue was from healthy non-smokers in their 30s. Human skin was separated from the underlying adipose tissue using a 15 blade scalpel. The epidermis was then removed using a […] dermatome (Integra LifeSciences Corporation, Cincinnati, Ohio) set to 0.25 mm thickness. The deepithelialized dermis was then divided into multiple pieces 1 cm^2 using sharp surgical scissors. Control or active hydrogel matrix (100 μl) was then layered onto the exposed surface of the dermis. […] For some groups, PBS and PAMP-12 PBS solution were used as negative and positive control. Following this, tissue pieces were removed and snap frozen in liquid nitrogen and stored at -80° C. until further processing. […] To obtain the absolute quantity of TPSAB1 transcripts, ddPCR (QX100, Bio-Rad, Hercules, Calif.) was employed using 5 ng of each cDNA sample and ddPCR supermix for the specific probes (Bio-Rad) according to manufacturer's protocols. […] QuantaSoft Software (Bio-Rad) was employed to analyze ddPCR results, and the absolute concentration of TPSAB1 transcripts in each sample determined by ddPCR was divided by the ACTB transcripts and presented as percentage based on normal skin samples (NS average taken as 100).

[6] = AFM morphology of self-assembling peptide nanofiber matrices; format: physicochemical
Experimental: as §1
The morphology of the hydrogel matrices were measured using Dimension 3100 Nanoman Atomic Force Microscopy (AFM, Veeco Metrology, LLC) with tapping mode, tip radius of 8 nm. Matrix solutions used in AFM studies were prepared by 500 times diluted with Mili-Q water. A drop (5 ul) of each solution was placed on freshly cleaved mica substrate then rise with water. The surfaces were air dried overnight at room temperature before being imaged.

LAD2 cells [7] = test system: LAD2 cells
Experimental: as §2

[8] = pure (RADA)4-GG-(PAMP-12), 0.5% w/v

| Structure (SMILES) | F-actin organization / cell morphology of LAD2 cells (LAD2 cells [1]; 2D imaging) | LAD2 cells associated with matrix post-wash (LAD2 cells [1]; 30 min incubation) | LAD2 degranulation (β-hex release) (LAD2 cells [2]) | β-hex release (plateau) (LAD2 cells [2]) | degranulation activity (β-hex release) (LAD2 cells [3]; 0.5% w/v hydrogel matrix with 20% w/w (RADA)4-GG-(PAMP-12)) | degranulation activity (β-hex release) (LAD2 cells [3]; 0.5% w/v hydrogel matrix with 40% w/w (RADA)4-GG-(PAMP-12)) | degranulation activity versus proportion in matrix (LAD2 cells [3]; (RADA)4-GG-(PAMP-12) from 2.5 to 20% w/w in matrix) | degranulation of LAD2 (β-hex release) (LAD2 cells [4]; 0.5% w/v matrix with 20% w/w (RADA)4-GG-(PAMP-12) in insert) | degranulation of LAD2 (β-hex release) (LAD2 cells [4]; matrix of 100% w/w (RADA)4-GG-(PAMP-12) in insert) | cytotoxicity to LAD2 cells (XTT) (LAD2 cells [5]) | effect on LAD2 proliferation (XTT) (LAD2 cells [5]) | TPSAB1 expression level, normalized to ACTB (TPSAB1 (tryptase) mRNA) | nanofiber length (most of the nanofibers) ([6]; 20% and 40% w/w (RADA)4-GG-(PAMP-12) in (RADA)4, 0.5% w/v) | nanofiber length (most of the nanofibers) [6, 8] | nanoparticle size [6, 8] | nanostructure morphology ([6]; pure peptide, 0.5% w/v) | nanofiber height (AFM cross section) ([6]; pure peptide, 0.5% w/v matrix) | degranulation of LAD2 (β-hex release) (LAD2 cells [4]; 0.29 mM PAMP-12 solution in insert) | degranulation of LAD2 (β-hex release) (LAD2 cells [4]; 1.46 mM PAMP-12 solution in insert) | effect on LAD2 proliferation (XTT) (LAD2 cells [7]) |
| --- | --- | --- | --- | --- | --- | --- | --- | --- | --- | --- | --- | --- | --- | --- | --- | --- | --- | --- | --- | --- |
| CC(=O)N[C@@H](CCCNC(=N)N)C(=O)N[C@@H](C)C(=O)N[C@@H](CC(=O)O)C(=O)N[C@@H](C)C(=O)N[C@@H](CCCNC(=N)N)C(=O)N[C@@H](C)C(=O)N[C@@H](CC(=O)O)C(=O)N[C@@H](C)C(=O)N[C@@H](CCCNC(=N)N)C(=O)N[C@@H](C)C(=O)N[C@@H](CC(=O)O)C(=O)N[C@@H](C)C(=O)N[C@@H](CCCNC(=N)N)C(=O)N[C@@H](C)C(=O)N[C@@H](CC(=O)O)C(=O)N[C@@H](C)C(=O)NCC(=O)NCC(=O)N[C@@H](Cc1ccccc1)C(=O)N[C@@H](CCCNC(=N)N)C(=O)N[C@@H](CCCCN)C(=O)N[C@@H](CCCCN)C(=O)N[C@@H](Cc1c[nH]c2ccccc12)C(=O)N[C@@H](CC(N)=O)C(=O)N[C@@H](CCCCN)C(=O)N[C@@H](Cc1c[nH]c2ccccc12)C(=O)N[C@@H](C)C(=O)N[C@@H](CC(C)C)C(=O)N[C@@H](CO)C(=O)N[C@@H](CCCNC(=N)N)C(N)=O [(RADA)4-GG-(PAMP-12)] | lamellipodia and filopodia were observed | considerable amount of cells retained after washing | induced significant degranulation | ~75% | 64.2±3.4% | 70.2±7.1% | increased proportionally | 11.1±1.1% | 59.6±3.1% | not cytotoxic | no statistically significant effect | 191.1±12.0 percentage | > 500 nm | less than 500 nm | less than 200 nm | thick and short nanofibers and even small nanoparticles | 2.5-3.5 nm | – | – | – |
| CC(=O)N[C@@H](CCCNC(=N)N)C(=O)N[C@@H](C)C(=O)N[C@@H](CC(=O)O)C(=O)N[C@@H](C)C(=O)N[C@@H](CCCNC(=N)N)C(=O)N[C@@H](C)C(=O)N[C@@H](CC(=O)O)C(=O)N[C@@H](C)C(=O)N[C@@H](CCCNC(=N)N)C(=O)N[C@@H](C)C(=O)N[C@@H](CC(=O)O)C(=O)N[C@@H](C)C(=O)N[C@@H](CCCNC(=N)N)C(=O)N[C@@H](C)C(=O)N[C@@H](CC(=O)O)C(=O)N[C@@H](C)C(N)=O [(RADA)4, RADARADARADARADA, reference compound] | – | – | – | – | – | – | – | – | – | not cytotoxic | no statistically significant effect | – | – | – | – | – | – | – | – | – |
| CC(=O)N[C@@H](Cc1ccccc1)C(=O)N[C@@H](CCCNC(=N)N)C(=O)N[C@@H](CCCCN)C(=O)N[C@@H](CCCCN)C(=O)N[C@@H](Cc1c[nH]c2ccccc12)C(=O)N[C@@H](CC(N)=O)C(=O)N[C@@H](CCCCN)C(=O)N[C@@H](Cc1c[nH]c2ccccc12)C(=O)N[C@@H](C)C(=O)N[C@@H](CC(C)C)C(=O)N[C@@H](CO)C(=O)N[C@@H](CCCNC(=N)N)C(N)=O [PAMP-12, Ac-FRKKWNKWALSR-CONH2, reference compound] | – | – | induced significant degranulation | ~75% | – | – | – | – | – | – | – | 224.2±9.920 percentage | – | – | – | – | – | 65.4±2.6% | 69.5±1.2% | no statistically significant effect |
